# System: PDE4
# Assay: Inhibition of PDE 4 activity (method of Bauer and Schwabe, adapted to microtitre plates)
# Type: biochemical
# Settings: measured as -logIC50 (mol/l)
row,SMILES,-logIC50
1,"CCOc1ccc(-c2nn(CC(=O)c3ccccc3)c(=O)c3ccccc23)cc1OCC [Compound 2, 2-(2-Phenyl-2-oxoethyl)-4-(3,4-diethoxyphenyl)-2H-phthalazin-1-one]",7.01
2,"CCOc1cc(-c2nn(CC(=O)c3ccccc3)c(=O)c3ccccc23)ccc1OC [Compound 3, 4-(3-Ethoxy-4-methoxyphenyl)-2-(2-phenyl-2-oxoethyl)-2H-phthalazin-1-one]",7.28
3,"COc1ccc(-c2nn(CC(=O)c3ccccc3)c(=O)c3ccccc23)cc1OC1CCCC1 [Compound 4, 4-(3-Cyclopentyloxy-4-methoxyphenyl)-2-(2-phenyl-2-oxoethyl)-2H-phthalazin-1-one]",7.09
4,"COc1ccc(-c2nn(CC(=O)c3ccccc3)c(=O)c3ccccc23)cc1OC(F)F [Compound 5, 4-(3-Difluoromethoxy-4-methoxyphenyl)-2-(2-phenyl-2-oxoethyl)-2H-phthalazin-1-one]",7.14
5,"COc1ccc(-c2nn(CC(=O)c3ccccc3OC)c(=O)c3ccccc23)cc1OC [Compound 7, 4-(3,4-Dimethoxyphenyl)-2-[2-(2-methoxyphenyl)-2-oxoethyl]-2H-phthalazin-1-one]",7.52
6,"COc1ccc(OC)c(C(=O)Cn2nc(-c3ccc(OC)c(OC)c3)c3ccccc3c2=O)c1 [Compound 10, 4-(3,4-Dimethoxyphenyl)-2-[2-(2,5-dimethoxyphenyl)-2-oxoethyl]-2H-phthalazin-1-one]",6.99
7,"COc1ccc(-c2nn(CC(=O)c3cc(Cl)c(N)c(Cl)c3)c(=O)c3ccccc23)cc1OC [Compound 12, 4-(3,4-Dimethoxyphenyl)-2-[2-(4-amino-3,5-dichlorophenyl)-2-oxoethyl]-2H-phthalazin-1-one]",6.85
